Here are results for 16 compounds from US20110112103A1, “5-HYDROXYPYRIMIDINE-4-CARBOXAMIDE COMPOUND” (DAIICHI SANKYO COMPANY, LIMITED, priority 2008, published 2011).

The subject of the first data set is human liver cancer-derived cell line Hep3B. The data set is described as follows: in vitro erythropoietin (EPO) induction activity in Hep3B cells, EPO ELISA of culture supernatant. Conditions: test compound 12.5 μM, 24 hours at 37° C., multiple against EPO concentration in control (0.5% DMSO). It counts as cell-based. As to the method: The in vitro erythropoietin (EPO) induction activity of test compounds was evaluated using human liver cancer-derived cell line Hep3B (ATCC, Manassas, Va.). Hep3B cells were cultured overnight at 37° C. in Dulbecco's Modified Eagle's Medium (DMEM) in the presence of 10% fetal bovine serum (FBS) (24-well plate, 1.0×10^5 cells/well). After replacing with fresh DMEM (+10% FBS) containing a test compound dissolved in 0.5% dimethyl sulfoxide (DMSO) (prepared to a concentration of 12.5 μM) or a solvent control (0.5% DMSO), the cells were cultured for 24 hours at 37° C. After recovering the culture supernatant, EPO concentration in the culture supernatant was quantified using a human EPO ELISA kit (StemCell Technologies). The compounds of Examples 1, 2, 5, 20, 43, 56, 100, 103, 109, 167, 173, 181, 193 and 198 were used for the test compounds. The EPO concentration of each Example was expressed as a multiple against the EPO concentration in the control.
Background: An ELISA detects its analyte on a solid surface through an enzyme-linked reagent.
`Cc1nc(CC2CCN(c3ccc(C(C)(C)C)cc3)CC2)nc(C(=O)NCC(=O)O)c1O` [Example 1]: the fold induction at 12.5 µM is 98. Still for that read-out and setting: in the case of `Cc1nc(CC2CCN(c3ccccc3)CC2)nc(C(=O)NCC(=O)O)c1O` [Example 2, [({5-Hydroxy-6-methyl-2-[(1-phenylpiperidin-4-yl)methyl]pyrimidin-4-yl}carbonyl)amino]acetic acid] it was 37; in that of `Cc1nc(CC2CCN(c3ccc(F)cc3)CC2)nc(C(=O)NCC(=O)O)c1O` [Example 5, {[(2-{[1-(4-Fluorophenyl)piperidin-4-yl]methyl}-5-hydroxy-6-methylpyrimidin-4-yl)carbonyl]amino}acetic acid], 29; in that of `Cc1nc(CC2CCN(c3ccc(C(F)(F)F)cc3)CC2)nc(C(=O)NCC(=O)O)c1O` [Example 20, ({[5-Hydroxy-6-methyl-2-({1-[4-(trifluoromethyl)phenyl]piperidin-4-yl}methyl)pyrimidin-4-yl]carbonyl}amino)acetic acid], 127.

In the case of `Cc1nc(CC2CCN(c3ccc(-c4ccccc4)cc3)CC2)nc(C(=O)NCC(=O)O)c1O` [Example 43, {[(2-{[1-(Biphenyl-4-yl)piperidin-4-yl]methyl}-5-hydroxy-6-methylpyrimidin-4-yl)carbonyl]amino}acetic acid], the fold induction at 12.5 µM is 262.

The compound `Cc1nc(CC2CCN(c3ccc(Cc4ccccc4)cc3)CC2)nc(C(=O)NCC(=O)O)c1O` [Example 56, {[(2-{[1-(4-Benzylphenyl)piperidin-4-yl]methyl}-5-hydroxy-6-methylpyrimidin-4-yl)carbonyl]amino}acetic acid] yielded a fold induction at 12.5 µM of 158. On the same count and under the same terms, in the case of `Cc1nc(CC2CCN(c3ccc(-c4ccccn4)cc3)CC2)nc(C(=O)NCC(=O)O)c1O` [Example 100, ({[5-Hydroxy-6-methyl-2-({1-[4-(pyridin-2-yl)phenyl]piperidin-4-yl}methyl)pyrimidin-4-yl]carbonyl}amino)acetic acid] it was 104. With `Cc1nc(CC2CCN(c3ccc(-c4cccnc4)cc3)CC2)nc(C(=O)NCC(=O)O)c1O` [Example 103, ({[5-Hydroxy-6-methyl-2-({1-[4-(pyridin-3-yl)phenyl]piperidin-4-yl}methyl)pyrimidin-4-yl]carbonyl}amino)acetic acid], the fold induction at 12.5 µM was found to be 100.

`Cc1nc(CC2CCN(c3ccc(-c4nccs4)cc3)CC2)nc(C(=O)NCC(=O)O)c1O` [Example 109, ({[5-Hydroxy-6-methyl-2-({1-[4-(1,3-thiazol-2-yl)phenyl]piperidin-4-yl}methyl)pyrimidin-4-yl]carbonyl}amino)acetic acid] yielded a fold induction at 12.5 µM of 142.

Compound `Cc1nc(CC2=CCN(c3ccc(C(C)(C)C)cc3)CC2)nc(C(=O)NCC(=O)O)c1O` [Example 167, {[(2-{[1-(4-tert-Butylphenyl)-1,2,3,6-tetrahydropyridin-4-yl]methyl}-5-hydroxy-6-methylpyrimidin-4-yl)carbonyl]amino}acetic acid] showed a fold induction at 12.5 µM of 225.

The compound `Cc1nc(Cc2ccc(-c3ccc(C(C)(C)C)cc3)nc2)nc(C(=O)NCC(=O)O)c1O` [Example 173, {[(2-{[6-(4-tert-Butylphenyl)pyridin-3-yl]methyl}-5-hydroxy-6-methylpyrimidin-4-yl)-carbonyl]amino}acetic acid] showed a fold induction at 12.5 µM of 184.

Turning to `Cc1nc(Cc2cnc(-c3ccc(C(C)(C)C)cc3)nc2)nc(C(=O)NCC(=O)O)c1O` [Example 181, {[(2-{[2-(4-tert-Butylphenyl)pyrimidin-5-yl]methyl}-5-hydroxy-6-methylpyrimidin-4-yl)-carbonyl]amino}acetic acid], the fold induction at 12.5 µM was determined as 155. `CSc1nc(CC2CCN(c3ccc(C(C)(C)C)cc3)CC2)nc(C(=O)NCC(=O)O)c1O` [Example 193, ({[2-{[1-(4-tert-Butylphenyl)piperidin-4-yl]methyl}-5-hydroxy-6-(methylsulfanyl)pyrimidin-4-yl]carbonyl}amino)acetic acid]: the fold induction at 12.5 µM was 147.

`Cc1nc(C[C@H]2OC[C@H](c3ccc(-c4ccccc4)cc3)CO2)nc(C(=O)NCC(=O)O)c1O` [Example 198, {[(2-{[trans-5-(Biphenyl-4-yl)-1,3-dioxan-2-yl]methyl}-5-hydroxy-6-methylpyrimidin-4-yl)-carbonyl]amino}acetic acid] came in with a fold induction at 12.5 µM of 108.

Tested on in a further data set: not given
Test: not given
Details: not given
For the compound `Cc1nc(CC2(C)CCN(c3ccc(F)cc3)CC2)nc(C(=O)NCC(=O)O)c1O` [Example 186, {[(2-{[1-(4-Fluorophenyl)-4-methylpiperidin-4-yl]methyl}-5-hydroxy-6-methylpyrimidin-4-yl)carbonyl]amino}acetic acid], the melting point was in the range of 140 to 141 °C.

The compound `Cc1nc(C[C@H]2OC[C@H](c3ccc(F)cc3)CO2)nc(C(=O)NCC(=O)O)c1O` [Example 196, {[(2-{[trans-5-(4-Fluorophenyl)-1,3-dioxan-2-yl]methyl}-5-hydroxy-6-methylpyrimidin-4-yl)carbonyl]amino}acetic acid] registered a melting point of 209 °C.

As a reminder, the fold induction is the signal under treatment as a multiple of the control signal. By melting point is commonly meant the temperature of the solid-liquid transition.
